Results reported in ChEMBL document CHEMBL1177756, “Design and synthesis of 1,4,5,6-tetrahydropyrrolo[3,4-c]pyrazoles and pyrazolo[3,4-b]pyridines for Aurora-A kinase inhibitors” (Bioorg Med Chem Lett, 2010).

How the values were obtained:
Format in all cases: functional, cell-based
[1] = tested on: HCT-116; experiment: Cytotoxicity against human HCT116 cells after 48 hrs by MTT assay; conditions: HCT-116, 48 h
[2] = tested on: A549; experiment: Cytotoxicity against human A549 cells after 48 hrs by MTT assay; conditions: A549, 48 h
[3] = tested on: A2780; experiment: Cytotoxicity against human A2780 cells after 48 hrs by MTT assay; conditions: A2780, 48 h

Cc1ccc(C(=O)Nc2n[nH]c3ncc(Br)cc23)cc1
IC50 [1]: 39.8 µM
IC50 [2]: > 200 µM
IC50 [3]: > 200 µM

CC(=O)c1ncccc1N1Cc2[nH]nc(NC(=O)c3ccccc3)c2C1
IC50 [1]: 168 µM
IC50 [2]: 175 µM
IC50 [3]: > 200 µM

O=C(Nc1n[nH]c2ncc(Br)cc12)c1ccccc1C(F)(F)F
IC50 [1]: 40.3 µM
IC50 [2]: 75.1 µM
IC50 [3]: > 200 µM

O=C(Nc1n[nH]c2ncc(Br)cc12)c1ccccc1Cl
IC50 [1]: 32.3 µM
IC50 [2]: > 200 µM
IC50 [3]: 46.7 µM

CC(=O)N1Cc2[nH]nc(NC(=O)c3ccc4ccccc4c3)c2C1
IC50 [1]: > 200 µM
IC50 [2]: > 200 µM
IC50 [3]: > 200 µM

O=C(Nc1n[nH]c2c1CN(C(=O)c1ccccn1)C2)c1ccc2c(c1)OCO2
IC50 [1]: > 200 µM
IC50 [2]: 118 µM
IC50 [3]: > 200 µM

O=C(Nc1n[nH]c2c1CN(C(=O)[C@@H](O)c1ccccc1)C2)c1ccco1
IC50 [1]: 4 µM
IC50 [2]: 25 µM
IC50 [3]: 35 µM

O=C(Nc1n[nH]c2ncc(Br)cc12)c1ccco1
IC50 [1]: 43.5 µM
IC50 [2]: 61.9 µM
IC50 [3]: 42 µM

CC(=O)c1ncccc1N1Cc2[nH]nc(NC(=O)c3ccc4c(c3)OCO4)c2C1
IC50 [1]: > 200 µM
IC50 [2]: > 200 µM
IC50 [3]: > 200 µM

CO[C@H](C(=O)N1Cc2[nH]nc(NC(=O)c3cc4c(c(OCc5ccccc5)c3)OCO4)c2C1)c1ccccc1
IC50 [1]: > 200 µM
IC50 [2]: > 200 µM
IC50 [3]: > 200 µM

O=C(Nc1n[nH]c2c1CN(C(=O)c1ccco1)C2)c1ccc2ccccc2c1
IC50 [1]: 45 µM
IC50 [2]: 34 µM
IC50 [3]: 54 µM

CC(=O)O[C@H](C(=O)N1Cc2[nH]nc(NC(=O)c3cc4c(c(OCc5ccccc5)c3)OCO4)c2C1)c1ccccc1
IC50 [1]: > 200 µM
IC50 [2]: > 200 µM
IC50 [3]: > 200 µM

CO[C@H](C(=O)N1Cc2[nH]nc(NC(=O)c3ccc(N4CCN(C)CC4)cc3)c2C1)c1ccccc1
IC50 [1]: 13 µM
IC50 [2]: 43 µM
IC50 [3]: 11 µM

O=C(Nc1n[nH]c2ncc(Br)cc12)c1ccc(Cl)cc1
IC50 [1]: 34.7 µM
IC50 [2]: 51.4 µM
IC50 [3]: 51.6 µM

O=C(Nc1n[nH]c2ncc(Br)cc12)c1ccccn1
IC50 [1]: 14.3 µM
IC50 [2]: 45.2 µM
IC50 [3]: 46.5 µM

COc1cc(OC)cc(C(=O)Nc2n[nH]c3ncc(Br)cc23)c1
IC50 [1]: 19.3 µM
IC50 [2]: 53.7 µM
IC50 [3]: 37.9 µM

O=C(Nc1n[nH]c2ncc(Br)cc12)c1ccc(F)cc1
IC50 [1]: 44.1 µM
IC50 [2]: > 200 µM
IC50 [3]: 50 µM

O=C(Cc1ccc(Br)cc1)Nc1n[nH]c2ncc(Br)cc12
IC50 [1]: 31.7 µM
IC50 [2]: 43.1 µM
IC50 [3]: 22.8 µM

O=C(Nc1n[nH]c2c1CN(C(=O)[C@@H](O)c1ccccc1)C2)c1ccc2c(c1)OCO2
IC50 [1]: 135 µM
IC50 [2]: 84 µM
IC50 [3]: > 200 µM

COc1ccc(C(=O)Nc2n[nH]c3ncc(Br)cc23)cc1
IC50 [1]: 24.9 µM
IC50 [2]: > 200 µM
IC50 [3]: > 200 µM

CO[C@H](C(=O)N1Cc2[nH]nc(NC(=O)c3ccc4c(c3)OCO4)c2C1)c1ccccc1
IC50 [1]: > 200 µM
IC50 [2]: > 200 µM
IC50 [3]: > 200 µM

O=C(Nc1n[nH]c2ncc(Br)cc12)c1ccc(C(F)(F)F)cc1
IC50 [1]: 21.9 µM
IC50 [2]: > 200 µM
IC50 [3]: > 200 µM

COc1ccc(C(=O)Nc2n[nH]c3c2CN(C(=O)c2ccccn2)C3)cc1
IC50 [1]: > 200 µM
IC50 [2]: > 200 µM
IC50 [3]: > 200 µM

Cc1cccnc1C(=O)Nc1n[nH]c2ncc(Br)cc12
IC50 [1]: 23 µM
IC50 [2]: > 200 µM
IC50 [3]: > 200 µM

COc1cc(OC)cc(C(=O)Nc2n[nH]c3c2CN(C(=O)[C@@H](O)c2ccccc2)C3)c1
IC50 [1]: 143 µM
IC50 [2]: 76 µM
IC50 [3]: > 200 µM

COc1ccc(C(=O)Nc2n[nH]c3c2CN(C(=O)[C@@H](OC)c2ccccc2)C3)cc1
IC50 [1]: 207 µM
IC50 [2]: 72 µM
IC50 [3]: > 200 µM

Cc1ccc(C(=O)N2Cc3[nH]nc(NC(=O)c4ccc5ccccc5c4)c3C2)cc1
IC50 [1]: > 200 µM
IC50 [2]: > 200 µM
IC50 [3]: > 200 µM

CO[C@H](C(=O)N1Cc2[nH]nc(NC(=O)c3ccccc3)c2C1)c1ccccc1
IC50 [1]: 26 µM
IC50 [2]: > 200 µM
IC50 [3]: > 200 µM

Cc1ccc(C(=O)Nc2n[nH]c3c2CN(C(=O)[C@@H](O)c2ccccc2)C3)cc1
IC50 [1]: 13 µM
IC50 [2]: 42 µM
IC50 [3]: 82 µM

COc1cc(OC)cc(C(=O)Nc2n[nH]c3c2CN(C(=O)[C@@H](OC)c2ccccc2)C3)c1
IC50 [1]: 103 µM
IC50 [2]: 99 µM
IC50 [3]: > 200 µM

Cc1ccccc1C(=O)Nc1n[nH]c2ncc(Br)cc12
IC50 [1]: 51.5 µM
IC50 [2]: > 200 µM
IC50 [3]: > 200 µM

Cc1ccc(C(=O)N2Cc3[nH]nc(NC(=O)c4ccco4)c3C2)cc1
IC50 [1]: > 200 µM
IC50 [2]: > 200 µM
IC50 [3]: > 200 µM

Cc1ccc(C(=O)Nc2n[nH]c3c2CN(C(=O)c2ccccn2)C3)cc1
IC50 [1]: > 200 µM
IC50 [2]: > 200 µM
IC50 [3]: > 200 µM

O=C(Nc1n[nH]c2ncc(Br)cc12)c1cc(Cl)cc(Cl)c1
IC50 [1]: 49.2 µM
IC50 [2]: > 200 µM
IC50 [3]: > 200 µM

COc1cc(OC)cc(C(=O)Nc2n[nH]c3c2CN(c2cccnc2C(C)=O)C3)c1
IC50 [1]: 107 µM
IC50 [2]: 161 µM
IC50 [3]: > 200 µM

CO[C@H](C(=O)N1Cc2[nH]nc(NC(=O)c3ccco3)c2C1)c1ccccc1
IC50 [1]: > 200 µM
IC50 [2]: > 200 µM
IC50 [3]: > 200 µM

O=C(Nc1n[nH]c2c1CN(C(=O)c1ccccn1)C2)c1cc2c(c(OCc3ccccc3)c1)OCO2
IC50 [1]: 104 µM
IC50 [2]: > 200 µM
IC50 [3]: > 200 µM

CO[C@H](C(=O)N1Cc2[nH]nc(NC(=O)c3ccc4ccccc4c3)c2C1)c1ccccc1
IC50 [1]: 38 µM
IC50 [2]: 16 µM
IC50 [3]: 23 µM

Cc1cccc(C(=O)Nc2n[nH]c3ncc(Br)cc23)c1
IC50 [1]: 25.5 µM
IC50 [2]: > 200 µM
IC50 [3]: 49.9 µM

COc1ccccc1C(=O)Nc1n[nH]c2ncc(Br)cc12
IC50 [1]: 15.6 µM
IC50 [2]: > 200 µM
IC50 [3]: 27 µM

COc1cc(OC)cc(C(=O)Nc2n[nH]c3c2CN(C(=O)c2ccccn2)C3)c1
IC50 [1]: 236 µM
IC50 [2]: > 200 µM
IC50 [3]: > 200 µM
